According to US10507212B2, “Method for use of homopiperazinium compounds in the treatment of cancer” (UNIVERSITÉ LAVAL, priority 2014, dated 2019):
Where two headings read alike, the source gives them in different places.

Key:
[1] = tested on: A549 human lung carcinoma cells; experiment: In vivo antitumor assay, A549 xenograft in Balb/c nude mice (Example 29); conditions: day 49; ASM-024 45 mg/kg s.c. daily day 14-38; taxol 10 mg/kg i.p. days 21, 28, 35; cisplatin 2.5 mg/kg i.p. days 28, 35
Experimental: For the in vivo antitumor assay, A549 human lung carcinoma cells (3.5×106) in 50% F12K medium (Matrigel) were implanted subcutaneously in the flank of Balb/c nude mice (nu/nu, Charles River) and allowed to grow for 14 days. ASM-024 was administered daily by subcutaneous delivery at the dose of 45 mg/kg from day 14 to day 38 post cell inoculation. Taxol was administrated intraperitoneally at the dose of 10 mg/kg on days 21, 28 and 35. Cisplatin was administrated intraperioneally at the dose of 2.5 mg/kg on days 28 and 35. From day 14 to day 49, tumor length and width were measured once or twice a week with a caliper and tumor volume calculated according to the formula Volume=(width2×length)/2.

[2] = tested on: Calu 3 lung adenocarcinoma; experiment: Cell proliferation assay, Calu 3 (MTT); assay type: cell-based; conditions: Homo sapiens
Experimental: In vitro experiments were conducted on four cancer cell lines: the A549 adenocarcinoma cell line, the H520 squamous cell carcinoma the H82 small cell lung carcinoma and Calu 3 lung adenocarcinoma. The A549 tumor cells, were plated at a density of 1.5×10^4 cells per mL and let to adhere on 96-well microplates in F12K cell culture medium enriched with 10% fetal calf serum (FCS). The H520, H82 and Calu 3 tumor cells were plated at a density of 5×10^4 cells per mL in RPMI+10% FCS. After 24 h in culture, the medium was changed and cells were exposed to ASM-024 at concentrations ranging from 10^−7M to 10^−3M (FIGS. 1A-1C). After 3 and 6 days in culture, cell growth was quantified using the MTT colorimetric assay (M2128, Sigma) at 575-690 nm or the Cell Titer fluorescence assay (G8080, Promega) at 560/590 nm.
In an another set of experiments, a series of 16 other homopiperazinium compounds, in addition to ASM-024, were tested for their anti-proliferative effect on the four tumor cell lines described above after up to 6 days in culture at concentrations of 10^-7M to 10^-3M. (FIGS. 4A-4E) Cell growth was quantified using the MTT colorimetric assay for the A-549, H520 and Calu 3 cell lines and the CellTiter Fluorescence assay.for the H82 tumor cell line These are established method of determining viable cell number in proliferation studies.

Q: With CC[N+]1(CC)CCCN(c2ccccc2)CC1.Cc1ccc(S(=O)(=O)[O-])cc1 [ASM-024, 1,1-Diethyl-4-phenyl-homopiperazinium Tosylate] as the compound, how does the “A549 human carcinoma tumor growth (tumor volume)” value [1] read?
A: decrease in A549 human carcinoma tumor growth

Q: And the IC50 ([2]; 72 h, Calu 3, day 3 in culture, read-out: IC50 Day 3)?
A: 685 ± 320 µM

Q: And the IC50 ([2]; 144 h, Calu 3, day 6 in culture, read-out: IC50 Day 6)?
A: 192 ± 217 µM
